How the values were obtained:
[1] = system: rats; settings: cited from earlier work
[2] = system: male and female rats; assay: von Frey mechanical withdrawal threshold after oxaliplatin CIPN induction; type: in vivo, rat; settings: after single i.p. oxaliplatin 6 mg/kg, 3 days; baseline 72.9±2.7 grams
Procedure: Chronic pain models: Chemotherapy induced neuropathy was induced in rats with oxaliplatin after i.t catheter placement recovery with a single i.p. dose of oxaliplatin 6 mg/kg. The animals were allowed to recover for 3 days and then were assessed in the open field assay to ensure motor function and with a von Frey assay to assess allodynia to verify their pain state. The von Frey assay with an electronic aesthesiometer quantified the average baseline for a group of male and female rats to be 72.9±2.7 grams for the mechanical withdrawal threshold after cannulation but before CIPN model induction which fell to 27.9±2.7 grams indicating allodynia. On the day of treatment rats were assessed for baseline measures and then treated and assayed for […] responses.

Compound | motor effect after intrathecal administration ([1]; 2.4 µg i.t., ref Schmalhofer et al., 2008) | maximum tolerated dose in rats ([1]; in 10 µL, intrathecal, ref Flinspach et al., 2017) | mechanical withdrawal threshold (von Frey, electronic aesthesiometer) [2]
CSCC[C@@H]1NC(=O)CNC(=O)[C@H](CCC(=O)O)NC(=O)[C@@H]2CSSC[C@H](NC(=O)[C@@H](N)Cc3ccc(O)cc3)C(=O)N[C@@H](CCC(N)=O)C(=O)N[C@@H](CCCCN)C(=O)N[C@@H](Cc3c[nH]c4ccccc34)C(=O)N[C@@H](CCSC)C(=O)N[C@@H](Cc3c[nH]c4ccccc34)C(=O)N[C@@H]([C@@H](C)O)C(=O)N[C@H]3CSSC[C@H](NC(=O)[C@H](C(C)C)NC1=O)C(=O)N[C@@H](CCCNC(=N)N)C(=O)N[C@@H](CC(C)C)C(=O)N[C@@H](Cc1c[nH]c4ccccc14)C(=O)N[C@H](C(=O)N[C@@H](CCCCN)C(=O)N[C@@H](CCCCN)C(=O)N[C@@H](CCCCN)C(=O)N[C@@H](CC(C)C)C(=O)N[C@@H](Cc1c[nH]c4ccccc14)C(=O)O)CSSC[C@H](NC(=O)[C@H](CCCCN)NC(=O)[C@H](CCCNC(=N)N)NC(=O)[C@H](CCC(=O)O)NC(=O)[C@H](CO)NC(=O)[C@H](CC(=O)O)NC3=O)C(=O)N2 [WT ProTx-II] | laming effect | 2 µg | –
O=C1[O][Pt]2([NH][C@@H]3CCCC[C@H]3[NH]2)[O]C1=O [oxaliplatin] | – | – | 27.9±2.7 grams
